In PMC12155096 (International Journal of Molecular Sciences, 2025):

molecular target: Photinus pyralis (firefly) luciferase (Photinus pyralis, UniProt P08659); test: biochemical; type: biochemical; settings: not given
Sequence (P08659 whole entry): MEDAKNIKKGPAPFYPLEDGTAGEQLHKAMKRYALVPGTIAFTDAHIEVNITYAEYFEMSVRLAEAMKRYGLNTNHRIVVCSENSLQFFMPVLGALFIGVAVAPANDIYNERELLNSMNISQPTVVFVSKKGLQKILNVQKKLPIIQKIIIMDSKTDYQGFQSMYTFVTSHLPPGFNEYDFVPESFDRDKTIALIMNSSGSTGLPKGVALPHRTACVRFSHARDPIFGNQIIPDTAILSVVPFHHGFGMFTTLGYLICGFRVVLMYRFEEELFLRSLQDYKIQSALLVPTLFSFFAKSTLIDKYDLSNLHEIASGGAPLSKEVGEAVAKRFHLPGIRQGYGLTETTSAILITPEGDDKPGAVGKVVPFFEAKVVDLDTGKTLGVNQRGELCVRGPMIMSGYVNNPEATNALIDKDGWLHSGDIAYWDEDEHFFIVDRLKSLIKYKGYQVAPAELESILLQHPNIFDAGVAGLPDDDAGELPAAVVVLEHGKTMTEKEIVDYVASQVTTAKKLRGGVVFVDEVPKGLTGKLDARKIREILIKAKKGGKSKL

| Compound | Luciferase IC50 (half-maximal inhibitory concentration) | Luciferase IC50 | Luciferase Efficacy (in parenthesis) |
| --- | --- | --- | --- |
| COC(=O)C1=C(C)NC(C)=C(C(=O)O[C@@H]2CCCN(Cc3ccccc3)C2)[C@@H]1c1cccc([N+](=O)[O-])c1.Cl (racemic) [rac Benidipine hydrochloride] | Inactive | – | – |
| Cl.OC(CNCC(O)C1CCc2cc(F)ccc2O1)C1CCc2cc(F)ccc2O1 (racemic) [rac Nebivolol hydrochloride] | Inactive | – | – |
| CC(=C(CCOC(=O)C(C)C)SSC(CCOC(=O)C(C)C)=C(C)N(C=O)Cc1cnc(C)nc1N)N(C=O)Cc1cnc(C)nc1N (stereo in doubt) [Bisibutiamine] | Inactive | – | – |
| N=C(Nc1ccccc1)Nc1ccccc1 [1,3-Diphenylguanidine] | – | Inactive | – |
| CC[N+]1(C)CCCC1.[I-] [1-Ethyl-1-methylpyrrolidinium iodide] | – | Inactive | – |
| CCCCCCCCCCCCCCCCn1cc[n+](C)c1.[Cl-] [1-Hexadecyl-3-methylimidazolium chloride] | Inactive | – | – |
| O=C(Nc1ccccc1SSc1ccccc1NC(=O)c1ccccc1)c1ccccc1 [2,2'-Dibenzoylaminodiphenyl disulfide] | – | – | 3.42 ± 1.53 (-57 ± 5) % |
| OCC(c1ccc(Cl)cc1)c1ccc(Cl)cc1 [2,2-Bis(4-chlorophenyl)ethanol] | Inactive | – | – |
| CCOc1cc(OCC)c(C(C)=O)cc1OCC [2,4,5-Triethoxyacetophenone] | Inactive | – | – |
| Clc1ccc2c(c1)Nc1ccccc1S2 [2-Chlorophenothiazine] | Inactive | – | – |
| Cc1cc(-c2cc(C)c(N)c(C)c2)cc(C)c1N [3,3',5,5'-Tetramethylbenzidine] | – | Inactive | – |

same assay, conditions: read-out: Luciferase IC50 (half-maximal inhibitory concentration)

| Compound | IC50 |
| --- | --- |
| O=C(Nc1ccccc1SSc1ccccc1NC(=O)c1ccccc1)c1ccccc1 [2,2'-Dibenzoylaminodiphenyl disulfide] | 3.42 µM |

molecular target: T1, human CYP1A2 (Homo sapiens, UniProt P05177); test: not given; settings: not given
T1 sequence (P05177 1-516): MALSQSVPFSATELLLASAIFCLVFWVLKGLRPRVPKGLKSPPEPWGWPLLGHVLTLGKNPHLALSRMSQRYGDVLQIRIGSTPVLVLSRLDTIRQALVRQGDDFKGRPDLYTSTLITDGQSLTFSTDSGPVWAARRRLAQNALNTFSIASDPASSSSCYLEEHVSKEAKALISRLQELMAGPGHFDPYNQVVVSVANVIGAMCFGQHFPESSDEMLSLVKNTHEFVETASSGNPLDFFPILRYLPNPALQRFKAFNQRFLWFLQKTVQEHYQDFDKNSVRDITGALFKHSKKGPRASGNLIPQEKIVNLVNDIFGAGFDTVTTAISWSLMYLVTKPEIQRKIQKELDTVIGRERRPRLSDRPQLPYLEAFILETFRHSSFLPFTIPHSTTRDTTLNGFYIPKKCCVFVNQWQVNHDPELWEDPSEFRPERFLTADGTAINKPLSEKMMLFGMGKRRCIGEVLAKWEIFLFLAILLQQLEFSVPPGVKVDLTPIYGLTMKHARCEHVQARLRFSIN

| Compound | IC50 | CYP1A2 IC50 (half-maximal inhibitory concentration) | CYP1A2 Efficacy (in parenthesis) | CYP1A2 Efficacy |
| --- | --- | --- | --- | --- |
| COC(=O)C1=C(C)NC(C)=C(C(=O)O[C@@H]2CCCN(Cc3ccccc3)C2)[C@@H]1c1cccc([N+](=O)[O-])c1.Cl (racemic) [rac Benidipine hydrochloride] | 25.2 µM | – | – | – |
| Cl.OC(CNCC(O)C1CCc2cc(F)ccc2O1)C1CCc2cc(F)ccc2O1 (racemic) [rac Nebivolol hydrochloride] | – | Inactive | – | – |
| CC(=C(CCOC(=O)C(C)C)SSC(CCOC(=O)C(C)C)=C(C)N(C=O)Cc1cnc(C)nc1N)N(C=O)Cc1cnc(C)nc1N (stereo in doubt) [Bisibutiamine] | – | Inactive | – | – |
| N=C(Nc1ccccc1)Nc1ccccc1 [1,3-Diphenylguanidine] | 30.8 µM | – | – | – |
| CC[N+]1(C)CCCC1.[I-] [1-Ethyl-1-methylpyrrolidinium iodide] | 75.5 µM | – | – | – |
| CCCCCCCCCCCCCCCCn1cc[n+](C)c1.[Cl-] [1-Hexadecyl-3-methylimidazolium chloride] | 69.7 µM | – | 69.7 ± 29.29 (-90 ± 28) % | – |
| O=C(Nc1ccccc1SSc1ccccc1NC(=O)c1ccccc1)c1ccccc1 [2,2'-Dibenzoylaminodiphenyl disulfide] | 6.73 µM | – | 6.73 ± 1.52 (-88 ± 2) % | – |
| OCC(c1ccc(Cl)cc1)c1ccc(Cl)cc1 [2,2-Bis(4-chlorophenyl)ethanol] | 34.3 µM | – | 34.28 ± 2.23 (-78 ± 6) % | 34.28 ± 2.23 (-78 ± 6) % |
| CCOc1cc(OCC)c(C(C)=O)cc1OCC [2,4,5-Triethoxyacetophenone] | 0.87 µM | – | – | – |
| Clc1ccc2c(c1)Nc1ccccc1S2 [2-Chlorophenothiazine] | 0.44 µM | – | – | – |
| Cc1cc(-c2cc(C)c(N)c(C)c2)cc(C)c1N [3,3',5,5'-Tetramethylbenzidine] | 0.24 µM | – | – | – |

molecular target: human CYP2C9 (Homo sapiens, UniProt P11712); test: not given; settings: not given
Sequence (P11712 whole entry): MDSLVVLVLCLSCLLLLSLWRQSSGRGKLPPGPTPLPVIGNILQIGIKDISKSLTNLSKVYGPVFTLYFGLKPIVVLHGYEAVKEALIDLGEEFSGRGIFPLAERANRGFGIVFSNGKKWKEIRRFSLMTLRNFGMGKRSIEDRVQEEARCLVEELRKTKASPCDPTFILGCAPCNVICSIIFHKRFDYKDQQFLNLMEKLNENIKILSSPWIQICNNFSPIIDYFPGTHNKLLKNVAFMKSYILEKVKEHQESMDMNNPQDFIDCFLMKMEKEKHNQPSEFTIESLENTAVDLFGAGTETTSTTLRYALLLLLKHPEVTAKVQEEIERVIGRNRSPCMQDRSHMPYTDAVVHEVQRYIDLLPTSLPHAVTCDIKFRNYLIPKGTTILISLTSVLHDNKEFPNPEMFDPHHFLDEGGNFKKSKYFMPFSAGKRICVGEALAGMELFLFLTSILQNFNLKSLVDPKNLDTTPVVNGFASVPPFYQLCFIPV

| Compound | IC50 | CYP2C9 IC50 (half-maximal inhibitory concentration) | CYP2C9 IC50 | CYP2C9 Efficacy (in parenthesis) | AC50 | CYP2C9 Efficacy |
| --- | --- | --- | --- | --- | --- | --- |
| COC(=O)C1=C(C)NC(C)=C(C(=O)O[C@@H]2CCCN(Cc3ccccc3)C2)[C@@H]1c1cccc([N+](=O)[O-])c1.Cl (racemic) [rac Benidipine hydrochloride] | 0.75 µM | – | – | – | – | – |
| Cl.OC(CNCC(O)C1CCc2cc(F)ccc2O1)C1CCc2cc(F)ccc2O1 (racemic) [rac Nebivolol hydrochloride] | – | Inactive | – | – | – | – |
| CC(=C(CCOC(=O)C(C)C)SSC(CCOC(=O)C(C)C)=C(C)N(C=O)Cc1cnc(C)nc1N)N(C=O)Cc1cnc(C)nc1N (stereo in doubt) [Bisibutiamine] | – | Inactive | – | – | – | – |
| N=C(Nc1ccccc1)Nc1ccccc1 [1,3-Diphenylguanidine] | 53.1 µM | – | – | – | – | – |
| CC[N+]1(C)CCCC1.[I-] [1-Ethyl-1-methylpyrrolidinium iodide] | – | – | Inactive | – | – | – |
| CCCCCCCCCCCCCCCCn1cc[n+](C)c1.[Cl-] [1-Hexadecyl-3-methylimidazolium chloride] | 55.4 µM | – | – | 55.36 ± 23.27 (-121 ± 6) % | – | – |
| O=C(Nc1ccccc1SSc1ccccc1NC(=O)c1ccccc1)c1ccccc1 [2,2'-Dibenzoylaminodiphenyl disulfide] | 0.57 µM | – | – | 0.57 ± 0.07 (-99 ± 3) % | – | – |
| OCC(c1ccc(Cl)cc1)c1ccc(Cl)cc1 [2,2-Bis(4-chlorophenyl)ethanol] | – | – | – | 11.71 ± 0.79 (-108 ± 10) % | 11.7 µM | 11.71 ± 0.79 (-108 ± 10) % |
| CCOc1cc(OCC)c(C(C)=O)cc1OCC [2,4,5-Triethoxyacetophenone] | – | – | – | – | – | 37.98 ± 5.23 (-54 ± 11) % |
| Clc1ccc2c(c1)Nc1ccccc1S2 [2-Chlorophenothiazine] | – | – | – | – | – | 11.4 ± 3.88 (-60 ± 10) % |
| Cc1cc(-c2cc(C)c(N)c(C)c2)cc(C)c1N [3,3',5,5'-Tetramethylbenzidine] | 21.2 µM | – | – | – | – | – |

molecular target: human CYP2C19 (Homo sapiens, UniProt P33261); test: not given; settings: not given
Sequence (P33261 whole entry): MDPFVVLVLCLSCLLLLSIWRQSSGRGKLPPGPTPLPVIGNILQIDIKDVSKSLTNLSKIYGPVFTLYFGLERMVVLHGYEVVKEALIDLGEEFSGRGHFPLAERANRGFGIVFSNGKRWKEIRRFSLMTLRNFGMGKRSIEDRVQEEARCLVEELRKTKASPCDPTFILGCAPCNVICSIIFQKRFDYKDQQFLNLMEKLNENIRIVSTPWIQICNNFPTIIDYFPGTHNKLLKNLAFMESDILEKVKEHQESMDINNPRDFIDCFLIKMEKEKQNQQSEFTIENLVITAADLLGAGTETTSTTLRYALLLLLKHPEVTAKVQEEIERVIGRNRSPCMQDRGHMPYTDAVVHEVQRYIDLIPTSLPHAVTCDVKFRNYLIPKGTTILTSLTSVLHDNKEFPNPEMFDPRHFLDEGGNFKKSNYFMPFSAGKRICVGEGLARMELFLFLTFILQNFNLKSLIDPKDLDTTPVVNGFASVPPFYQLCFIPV

| Compound | IC50 | CYP2C19 Efficacy | CYP2C19 IC50 (half-maximal inhibitory concentration) | CYP2C19 Efficacy (in parenthesis) |
| --- | --- | --- | --- | --- |
| COC(=O)C1=C(C)NC(C)=C(C(=O)O[C@@H]2CCCN(Cc3ccccc3)C2)[C@@H]1c1cccc([N+](=O)[O-])c1.Cl (racemic) [rac Benidipine hydrochloride] | 6.53 µM | – | – | – |
| Cl.OC(CNCC(O)C1CCc2cc(F)ccc2O1)C1CCc2cc(F)ccc2O1 (racemic) [rac Nebivolol hydrochloride] | 41.3 µM | 41.28 ± 3.36 (-60 ± 3) % | – | – |
| CC(=C(CCOC(=O)C(C)C)SSC(CCOC(=O)C(C)C)=C(C)N(C=O)Cc1cnc(C)nc1N)N(C=O)Cc1cnc(C)nc1N (stereo in doubt) [Bisibutiamine] | – | – | Inactive | – |
| N=C(Nc1ccccc1)Nc1ccccc1 [1,3-Diphenylguanidine] | 45 µM | – | – | – |
| CC[N+]1(C)CCCC1.[I-] [1-Ethyl-1-methylpyrrolidinium iodide] | 26.7 µM | – | – | – |
| CCCCCCCCCCCCCCCCn1cc[n+](C)c1.[Cl-] [1-Hexadecyl-3-methylimidazolium chloride] | 53 µM | – | – | 52.99 ± 35.71 (-145 ± 35) % |
| O=C(Nc1ccccc1SSc1ccccc1NC(=O)c1ccccc1)c1ccccc1 [2,2'-Dibenzoylaminodiphenyl disulfide] | 3.94 µM | – | – | 3.94 ± 2.15 (-155 ± 9) % |
| OCC(c1ccc(Cl)cc1)c1ccc(Cl)cc1 [2,2-Bis(4-chlorophenyl)ethanol] | 0.14 µM | 0.14 ± 0.07 (-161 ± 31) % | – | 0.14 ± 0.07 (-161 ± 31) % |
| CCOc1cc(OCC)c(C(C)=O)cc1OCC [2,4,5-Triethoxyacetophenone] | 65 µM | – | – | – |
| Clc1ccc2c(c1)Nc1ccccc1S2 [2-Chlorophenothiazine] | 7.85 µM | – | – | – |
| Cc1cc(-c2cc(C)c(N)c(C)c2)cc(C)c1N [3,3',5,5'-Tetramethylbenzidine] | 12.1 µM | – | – | – |

molecular target: human CYP2D6 (Homo sapiens, UniProt P10635); test: not given; settings: not given
Sequence (P10635 whole entry): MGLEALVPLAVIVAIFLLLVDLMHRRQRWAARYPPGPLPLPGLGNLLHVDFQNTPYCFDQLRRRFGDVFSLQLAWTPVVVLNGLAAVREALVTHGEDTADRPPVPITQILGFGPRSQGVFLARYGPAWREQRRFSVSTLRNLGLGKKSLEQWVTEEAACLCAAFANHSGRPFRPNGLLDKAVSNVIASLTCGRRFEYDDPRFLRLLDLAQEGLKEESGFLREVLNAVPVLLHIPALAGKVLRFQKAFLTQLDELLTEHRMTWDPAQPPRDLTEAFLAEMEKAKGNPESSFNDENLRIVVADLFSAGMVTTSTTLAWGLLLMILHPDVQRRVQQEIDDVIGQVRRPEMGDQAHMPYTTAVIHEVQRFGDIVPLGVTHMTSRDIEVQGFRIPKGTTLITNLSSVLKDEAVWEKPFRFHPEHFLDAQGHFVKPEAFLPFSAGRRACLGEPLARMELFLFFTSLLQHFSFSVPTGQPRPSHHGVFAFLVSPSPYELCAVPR

| Compound | IC50 | CYP2D6 Efficacy | CYP2D6 IC50 (half-maximal inhibitory concentration) | CYP2D6 Efficacy (in parenthesis) |
| --- | --- | --- | --- | --- |
| COC(=O)C1=C(C)NC(C)=C(C(=O)O[C@@H]2CCCN(Cc3ccccc3)C2)[C@@H]1c1cccc([N+](=O)[O-])c1.Cl (racemic) [rac Benidipine hydrochloride] | 13.6 µM | – | – | – |
| Cl.OC(CNCC(O)C1CCc2cc(F)ccc2O1)C1CCc2cc(F)ccc2O1 (racemic) [rac Nebivolol hydrochloride] | 0.25 µM | 0.25 ± 0.05 (-104 ± 2) % | – | – |
| CC(=C(CCOC(=O)C(C)C)SSC(CCOC(=O)C(C)C)=C(C)N(C=O)Cc1cnc(C)nc1N)N(C=O)Cc1cnc(C)nc1N (stereo in doubt) [Bisibutiamine] | – | – | Inactive | – |
| N=C(Nc1ccccc1)Nc1ccccc1 [1,3-Diphenylguanidine] | 0.2 µM | – | – | – |
| CC[N+]1(C)CCCC1.[I-] [1-Ethyl-1-methylpyrrolidinium iodide] | 0.01 µM | – | – | – |
| CCCCCCCCCCCCCCCCn1cc[n+](C)c1.[Cl-] [1-Hexadecyl-3-methylimidazolium chloride] | 0.38 µM | – | – | 0.38 ± 0.13 (-102 ± 3) % |
| O=C(Nc1ccccc1SSc1ccccc1NC(=O)c1ccccc1)c1ccccc1 [2,2'-Dibenzoylaminodiphenyl disulfide] | – | – | 37.5 ± 45.35 (15 ± 47) µM | 37.5 ± 45.35 (15 ± 47) % |
| OCC(c1ccc(Cl)cc1)c1ccc(Cl)cc1 [2,2-Bis(4-chlorophenyl)ethanol] | – | – | Inactive | – |
| CCOc1cc(OCC)c(C(C)=O)cc1OCC [2,4,5-Triethoxyacetophenone] | 69.8 µM | – | – | – |
| Clc1ccc2c(c1)Nc1ccccc1S2 [2-Chlorophenothiazine] | – | – | Inactive | – |
| Cc1cc(-c2cc(C)c(N)c(C)c2)cc(C)c1N [3,3',5,5'-Tetramethylbenzidine] | 16.2 µM | – | – | – |

molecular target: CYP3A4 (Homo sapiens, UniProt P08684); test: not given; settings: not given
Sequence (P08684 whole entry): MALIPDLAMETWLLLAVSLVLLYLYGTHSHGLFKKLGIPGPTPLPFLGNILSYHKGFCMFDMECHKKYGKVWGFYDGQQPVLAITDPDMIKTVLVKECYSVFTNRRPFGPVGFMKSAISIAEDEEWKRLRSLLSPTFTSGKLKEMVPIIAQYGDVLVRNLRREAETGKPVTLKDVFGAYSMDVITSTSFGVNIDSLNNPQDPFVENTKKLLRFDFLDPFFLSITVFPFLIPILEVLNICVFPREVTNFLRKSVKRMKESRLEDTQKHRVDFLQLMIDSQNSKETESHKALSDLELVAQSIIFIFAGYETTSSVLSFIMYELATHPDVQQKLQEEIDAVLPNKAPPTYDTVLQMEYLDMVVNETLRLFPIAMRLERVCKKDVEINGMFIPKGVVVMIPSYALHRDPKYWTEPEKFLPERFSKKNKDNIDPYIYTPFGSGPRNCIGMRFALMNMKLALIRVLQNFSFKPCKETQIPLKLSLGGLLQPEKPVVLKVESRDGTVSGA

| Compound | IC50 | AC50 | CYP3A4 IC50 (half-maximal inhibitory concentration) | CYP3A4 IC50 | CYP3A4 Efficacy (in parenthesis) |
| --- | --- | --- | --- | --- | --- |
| COC(=O)C1=C(C)NC(C)=C(C(=O)O[C@@H]2CCCN(Cc3ccccc3)C2)[C@@H]1c1cccc([N+](=O)[O-])c1.Cl (racemic) [rac Benidipine hydrochloride] | 0.84 µM | – | – | – | – |
| Cl.OC(CNCC(O)C1CCc2cc(F)ccc2O1)C1CCc2cc(F)ccc2O1 (racemic) [rac Nebivolol hydrochloride] | – | 16.1 µM | 16.12 ± 1.09 (65 ± 10) µM | – | – |
| CC(=C(CCOC(=O)C(C)C)SSC(CCOC(=O)C(C)C)=C(C)N(C=O)Cc1cnc(C)nc1N)N(C=O)Cc1cnc(C)nc1N (stereo in doubt) [Bisibutiamine] | 0.36 µM | – | – | – | – |
| N=C(Nc1ccccc1)Nc1ccccc1 [1,3-Diphenylguanidine] | 51.9 µM | – | – | – | – |
| CC[N+]1(C)CCCC1.[I-] [1-Ethyl-1-methylpyrrolidinium iodide] | – | – | – | Inactive | – |
| CCCCCCCCCCCCCCCCn1cc[n+](C)c1.[Cl-] [1-Hexadecyl-3-methylimidazolium chloride] | 63.6 µM | – | – | – | 63.62 ± 15.46 (-70 ± 19) % |
| O=C(Nc1ccccc1SSc1ccccc1NC(=O)c1ccccc1)c1ccccc1 [2,2'-Dibenzoylaminodiphenyl disulfide] | 3.23 µM | – | – | – | 3.23 ± 1.25 (-75 ± 7) % |
| OCC(c1ccc(Cl)cc1)c1ccc(Cl)cc1 [2,2-Bis(4-chlorophenyl)ethanol] | – | 18.7 µM | 18.71 ± 6.46 (64 ± 10) µM | – | 18.71 ± 6.46 (64 ± 10) % |
| CCOc1cc(OCC)c(C(C)=O)cc1OCC [2,4,5-Triethoxyacetophenone] | 58.5 µM | – | – | – | – |
| Clc1ccc2c(c1)Nc1ccccc1S2 [2-Chlorophenothiazine] | – | – | Inactive | – | – |
| Cc1cc(-c2cc(C)c(N)c(C)c2)cc(C)c1N [3,3',5,5'-Tetramethylbenzidine] | 28.1 µM | – | – | – | – |
